Values after ≈ are worked out from the molar mass of the structure shown.
These compounds were tested against T1, penicillin-binding protein 1b from E. coli (transglycosylase) (Escherichia coli, UniProt P02919) (assay: Lipid II polymerization / transglycosylase (TG) activity assay). Conditions: 50 μM compound; TG activity remaining (0% = full inhibition).
T1 construct: PBP1b[58-804] was amplified from E. coli genomic DNA and cloned into the expression vector pET15b; His6 (N, cleaved yes); made in house; host or cells: E. coli BL21(DE3)
T1 sequence (P02919 58-804): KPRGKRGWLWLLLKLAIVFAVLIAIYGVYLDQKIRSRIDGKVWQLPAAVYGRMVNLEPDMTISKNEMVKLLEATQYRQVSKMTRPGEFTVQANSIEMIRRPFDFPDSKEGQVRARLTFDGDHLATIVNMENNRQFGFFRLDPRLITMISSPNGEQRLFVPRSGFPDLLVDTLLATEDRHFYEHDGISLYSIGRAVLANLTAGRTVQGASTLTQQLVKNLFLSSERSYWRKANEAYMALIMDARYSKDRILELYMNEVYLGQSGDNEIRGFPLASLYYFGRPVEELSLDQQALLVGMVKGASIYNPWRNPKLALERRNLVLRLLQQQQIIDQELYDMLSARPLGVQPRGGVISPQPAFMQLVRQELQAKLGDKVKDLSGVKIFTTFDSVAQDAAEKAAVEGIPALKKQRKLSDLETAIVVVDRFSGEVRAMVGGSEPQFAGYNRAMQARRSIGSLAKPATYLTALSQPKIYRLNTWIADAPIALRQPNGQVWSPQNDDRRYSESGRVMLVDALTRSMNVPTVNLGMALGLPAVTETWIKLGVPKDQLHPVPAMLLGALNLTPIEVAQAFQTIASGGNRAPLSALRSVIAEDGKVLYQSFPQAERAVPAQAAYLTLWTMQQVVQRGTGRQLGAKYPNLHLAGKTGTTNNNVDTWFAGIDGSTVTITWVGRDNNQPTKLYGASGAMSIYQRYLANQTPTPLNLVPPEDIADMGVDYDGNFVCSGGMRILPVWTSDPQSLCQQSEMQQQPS
Type: biochemical
Description: Lipid II polymerization assays were carried out by incubating 100 μM fluorophore-labeled lipid II and penicillin-binding protein 1b from E. coli in tubes containing 10 ng/μL N-acetyl muramidase in 50 mM Tris.HCl (pH 8.0), 10 mM MgCl2, 0.1% Triton X-100, 10% DMSO, and 15% MeOH for 30 minutes (Van Nieuwenhze et al. J Am Chem Soc 2002, 124, 3656.). The fluorophore can be dansyl chloride, NBD, BODIPY, fluorescein. Reaction supernatants were then injected onto an anion-exchange HPLC column (SAX1, Supelco Co.) and eluted with a linear gradient of ammonium acetate (20 mM to 0.5 M) in methanol. The eluant was monitored for fluorescence with λex=466 nm and λem=535 nm.
Purified protein was concentrated in 20 mM Tris-HCl (pH 8.0), 300 mM NaCl, and 1 mM DDM. Instead of using Dansyl lipid II, 6-(N-(7-nitrobenz-2-oxa-1,3-diazol-4-yl)amino) hexanoyl (NBD)-labeled Lipid II was prepared as described (Taubes G (2008) Science 321:356-361; Payne D J (2008) Science 321:1644-1645) and used as a substrate to measure TG enzymatic activity, with approach similar to what has been described previously (Holtje J V (1998) Microbiol Mol Biol Rev 62:181-203). Assays were carried out by using the following condition: NBD-Lipid II, 20 nM protein, 50 mM Tris HCl (pH 8.0), 10 mMCaCl2, 0.085% decyl PEG (Anatrace), and 15% MeOH at 37° C. for 0, 1, 3, 5, 7, 9, 20, and 30 min. The concentration of NBD-Lipid II was varied from 1 to 100 μM to determine the rate of the TG activity. After the reaction, 200 μM moenomycin was added to stop the reaction, and 13 μM muramidase (Sigma-Aldrich) was added to digest the TG products to result in NBD-Lipid II without lipid tails. The fluorescent signal decrease of substrate and increase of NBD-Lipid II without lipid tails were detected by anion-exchange column SAX1 (Supelco) on HPLC (Hitachi). The elution procedures was a linear gradient of ammonium acetate (20 mM to 1 M) in MeOH monitored at λexcitation=466 nm and λemission=535 nm. The kinetic parameter was estimated by following the Michaelis-Menten equation. To investigate the importance of transmembrane (TM) helix, PBP1b and PBP1bΔTM (residues Met-1 to Leu-87 were removed) were extracted with the buffer containing 20 mM Tris-HCl (pH 8.0), 300 mM NaCl, and 13 mM FOS-CHOLINE-14 (Anatrace). The protein was purified by nickel chelation chromatography in the presence of 1 mM DDM. The activity assay was carried out by using the following condition: 12 μM NBD-Lipid II, 20 nM protein, 50 mM Tris-HCl (pH 8.0), 10 mM CaCl2, 0.085% decyl PEG, and 15% MeOH at 37° C. for time 0, 1, 3, 5, 7, 9, 20, and 30 min. The initial velocity was used to compare the activity of full-length PBP1b and PBP1bΔTM.
In the case of `O=C(Nc1ccc(Cl)cc1)c1cc(Br)cc(Br)c1O` [KTS-9], the “TG Activity at various concentration of cmpd: 50 μM” value is reported as 100%.

Same assay, conditions: 100 μM compound; TG activity remaining (0% = full inhibition)
In the case of `O=C(Nc1ccc(Cl)cc1)c1cc(Br)cc(Br)c1O` [KTS-9], the “TG Activity at various concentration of cmpd: 100 μM” value is reported as 100%.

Same assay, conditions: read-out: TG Activity at various concentration of cmpd: 50 μM
In the case of `O=C(Nc1ccc(Cl)cc1)c1cc(Br)cc(Br)c1O` [Compound 118], the remaining activity at 50 µM is reported as 100%.
In the case of `O=C(Nc1cc(Cl)ccc1Cl)c1cc(Br)cc(Br)c1O` [Compound 127], the remaining activity at 50 µM is reported as 100%.
With `O=C(Nc1ccc(O)cc1)c1cc(Br)cc(Br)c1O` [KTS-1] the remaining activity at 50 µM was 70%.
In the case of `O=C(Nc1ccccc1O)c1cc(Br)cc(Br)c1O` [KTS-3], the remaining activity at 50 µM is reported as 70%.
`Cc1ccc(NC(=O)c2cc(Br)cc(Br)c2O)cc1Cl` [KTS-7] was tested, and the remaining activity at 50 µM was 100%.

Same assay, conditions: read-out: TG Activity at various concentration of cmpd: 100 μM
`O=C(Nc1cc(Cl)c(Cl)c(Cl)c1)c1cc(Br)cc(Br)c1O` [Compound 001] showed a remaining activity at 100 µM of 100%.
`O=C(Nc1ccc(Cl)c(Cl)c1)c1cc(Cl)cc(Cl)c1O` [Compound 003] was tested, and the remaining activity at 100 µM was 100%.
`O=C(Nc1cc(Cl)c(Cl)c(Cl)c1)c1cc(Cl)cc(Cl)c1O` [Compound 004] was tested, and the remaining activity at 100 µM was 100%.
With `O=C(Nc1ccc(Cl)cc1)c1cc(Br)cc(Br)c1O` [Compound 118] the remaining activity at 100 µM was 100%.
Work on `O=C(Nc1cc(Cl)ccc1Cl)c1cc(Br)cc(Br)c1O` [Compound 127] yielded a remaining activity at 100 µM of 100%.
`Cc1ccc(NC(=O)c2cc(Br)cc(Br)c2O)cc1Cl` [KTS-7] showed a remaining activity at 100 µM of 100%.

These compounds were tested on Staphylococcus aureus (ATCC29213, SA) (assay: Minimal inhibitory concentration (MIC), SA). Conditions: Staphylococcus aureus ATCC29213.
Type: cell-based
Description: (§1) The minimal inhibitory concentration (MIC) of tested compounds was determined following the NCCLS standard. The experiments were conducted in 96-well microtiter plates using two-fold dilutions in Muller-Hilton broth with (Streptococcus pneumonia) or without blood (Bacillus subtilis, Enterococcus faecalis, Staphylococcus aureus, Escherichia coli, MRSA, Actinetobacter baumannii, Pseudomonas aeruginosa, Stenotrophomonas maltophilia, and Mycobacterium smegmatis). Exponentially growing cells at 5×10^5 cells/ml were incubated with test compounds at various concentrations. After an 18 h to 24 h incubation at 37° C., MIC was determined as the minimal concentration of the compound that prevents bacterial growth.
In the case of `O=C(Nc1cc(Cl)c(Cl)c(Cl)c1)c1cc(Cl)cc(Cl)c1O` [Compound 004], the “MIC SA” value is reported as 0.125 µg/mL (≈ 0.324 µM).
For `O=C(Nc1ccc(Cl)cc1)c1cc(Br)cc(Br)c1O` [KTS-9], the “MIC SA” value was 1 µg/mL (≈ 2.47 µM).

Same assay, conditions: Staphylococcus aureus, ATCC29213, Staphylococcus aureus ATCC29213; read-out: MIC SA
Compound `O=C(Nc1cc(Cl)c(Cl)c(Cl)c1)c1cc(Br)cc(Br)c1O` [Compound 001] has an MIC of no more than 0.03 µg/mL.
`O=C(Nc1ccc(Cl)cc1)c1cc(Br)cc(Br)c1O` [Compound 118] was tested, and the MIC was 1 µg/mL (≈ 2.47 µM).
`O=C(Nc1cc(Cl)ccc1Cl)c1cc(Br)cc(Br)c1O` [Compound 127] showed an MIC of 1 µg/mL (≈ 2.27 µM).
With `O=C(Nc1ccc(O)cc1)c1cc(Br)cc(Br)c1O` [KTS-1] the MIC was 32 µg/mL (≈ 82.7 µM).
In the case of `O=C(Nc1ccccc1O)c1cc(Br)cc(Br)c1O` [KTS-3], the MIC is reported as 4 µg/mL (≈ 10.3 µM).
With `Cc1ccc(NC(=O)c2cc(Br)cc(Br)c2O)cc1Cl` [KTS-7] the MIC was 1 µg/mL (≈ 2.38 µM).

Same assay, conditions: Staphylococcus aureus, ATCC29213, read-out: MIC SA
Compound `O=C(Nc1ccc(Cl)c(Cl)c1)c1cc(Cl)cc(Cl)c1O` [Compound 003] has an MIC of 0.25 µg/mL (≈ 0.712 µM).

The compounds below were run on methicillin-resistant Staphylococcus aureus (ATCC33592, MRSA) (assay: Minimal inhibitory concentration (MIC), MRSA). Conditions: Staphylococcus aureus, methicillin-resistant Staphylococcus aureus ATCC33592; read-out: MIC MRSA.
Type: cell-based
Description: as §1
`O=C(Nc1cc(Cl)c(Cl)c(Cl)c1)c1cc(Br)cc(Br)c1O` [Compound 001] gave an MIC of 0.06 µg/mL (≈ 0.126 µM).
`O=C(Nc1cc(Cl)c(Cl)c(Cl)c1)c1cc(Cl)cc(Cl)c1O` [Compound 004] gave an MIC of 0.5 µg/mL (≈ 1.3 µM).
For `O=C(Nc1cc(Cl)ccc1Cl)c1cc(Br)cc(Br)c1O` [Compound 127], the MIC was 1 µg/mL (≈ 2.27 µM).
`O=C(Nc1ccc(O)cc1)c1cc(Br)cc(Br)c1O` [KTS-1] showed an MIC greater than 32 µg/mL.
Compound `O=C(Nc1ccccc1O)c1cc(Br)cc(Br)c1O` [KTS-3] has an MIC of 4 µg/mL (≈ 10.3 µM).
With `Cc1ccc(NC(=O)c2cc(Br)cc(Br)c2O)cc1Cl` [KTS-7] the MIC was 1 µg/mL (≈ 2.38 µM).

Same assay, conditions: Staphylococcus aureus, read-out: MIC MRSA
Compound `O=C(Nc1ccc(Cl)c(Cl)c1)c1cc(Cl)cc(Cl)c1O` [Compound 003] has an MIC of 1 µg/mL (≈ 2.85 µM).

Same assay, conditions: methicillin-resistant Staphylococcus aureus ATCC33592
`O=C(Nc1ccc(Cl)cc1)c1cc(Br)cc(Br)c1O` [Compound 118] was tested, and the “MIC MRSA” value was 4 µg/mL (≈ 9.87 µM).
For `O=C(Nc1ccc(Cl)cc1)c1cc(Br)cc(Br)c1O` [KTS-9], the “MIC MRSA” value was 1 µg/mL (≈ 2.47 µM).

What follows are compounds tested on Mycobacterium smegmatis (ATCC11565, MS) (assay: Minimal inhibitory concentration (MIC), MS). Conditions: Mycobacterium smegmatis ATCC11565.
Type: cell-based
Description: as §1
For `O=C(Nc1cc(Cl)c(Cl)c(Cl)c1)c1cc(Cl)cc(Cl)c1O` [Compound 004], the “MIC MS” value was “≦0.03 μg/ml”.
`O=C(Nc1ccc(Cl)cc1)c1cc(Br)cc(Br)c1O` [KTS-9] was tested, and the “MIC MS” value was 2 µg/mL (≈ 4.93 µM).

Same assay, conditions: Mycolicibacterium smegmatis, ATCC11565, Mycobacterium smegmatis ATCC11565; read-out: MIC MS
For `O=C(Nc1cc(Cl)c(Cl)c(Cl)c1)c1cc(Br)cc(Br)c1O` [Compound 001], the MIC was no more than 0.03 µg/mL.
Work on `O=C(Nc1ccc(Cl)cc1)c1cc(Br)cc(Br)c1O` [Compound 118] yielded an MIC of 1 µg/mL (≈ 2.47 µM).
`O=C(Nc1cc(Cl)ccc1Cl)c1cc(Br)cc(Br)c1O` [Compound 127] was tested, and the MIC was 1 µg/mL (≈ 2.27 µM).
With `O=C(Nc1ccc(O)cc1)c1cc(Br)cc(Br)c1O` [KTS-1] the MIC was 16 µg/mL (≈ 41.3 µM).
`O=C(Nc1ccccc1O)c1cc(Br)cc(Br)c1O` [KTS-3] gave an MIC of 4 µg/mL (≈ 10.3 µM).
For `Cc1ccc(NC(=O)c2cc(Br)cc(Br)c2O)cc1Cl` [KTS-7], the MIC was 1 µg/mL (≈ 2.38 µM).

Same assay, conditions: Mycolicibacterium smegmatis, ATCC11565, read-out: MIC MS
For `O=C(Nc1ccc(Cl)c(Cl)c1)c1cc(Cl)cc(Cl)c1O` [Compound 003], the MIC was 0.06 µg/mL (≈ 0.171 µM).

What follows are compounds tested on Escherichia coli (ATCC 25922, EC) (assay: Minimal inhibitory concentration (MIC), EC). Conditions: ATCC25922; Escherichia coli ATCC 25922; read-out: MIC EC.
Type: cell-based
Description: as §1
For `O=C(Nc1cc(Cl)c(Cl)c(Cl)c1)c1cc(Br)cc(Br)c1O` [Compound 001], the MIC was 16 µg/mL (≈ 33.7 µM).
`O=C(Nc1cc(Cl)c(Cl)c(Cl)c1)c1cc(Cl)cc(Cl)c1O` [Compound 004] was tested, and the MIC was 16 µg/mL (≈ 41.5 µM).
In the case of `O=C(Nc1ccc(Cl)cc1)c1cc(Br)cc(Br)c1O` [Compound 118], the MIC is reported as 128 µg/mL (≈ 316 µM).
`O=C(Nc1cc(Cl)ccc1Cl)c1cc(Br)cc(Br)c1O` [Compound 127] gave an MIC of 64 µg/mL (≈ 145 µM).

Same assay, conditions: Escherichia coli, ATCC25922, read-out: MIC EC
Compound `O=C(Nc1ccc(Cl)c(Cl)c1)c1cc(Cl)cc(Cl)c1O` [Compound 003] has an MIC of 32 µg/mL (≈ 91.2 µM).

From patent publication US9890111B2, “Crystal structure of bifunctional transglycosylase PBP1b from E. coli and inhibitors thereof” (Academia Sinica, priority 2008, dated 2018)
